Data from patent US8658665B2, “3,6-disubstituted xanthylium salts and use thereof in treatment of tauopathies” (WisTa Laboratories Ltd., priority 2008, dated 2014).
Where a name gives a salt, the structure may show the parent alone.

Legend:
[1] = system: fibroblast cells (3T6); conditions: for LD50: cell numbers after 24 hrs exposure, lactate dehydrogenase assay kit, mean ± SE, number of replications in parentheses; for RxI: therapeutic index, RxI=LD50/EC50
Description: Toxicity of the compounds described herein was assessed in the cell based assay used to assess EC50. Toxicity was measured by cell numbers after 24 hrs exposure to the compound using a lactate dehydrogenase assay kit TOX-7 (Sigma Biosciences) according to the manufacturer's instructions after lysis of remaining cells. Alternatively a kit from Promega UK (CytoTox 96) was used, again according to the manufacturer's instructions.
The therapeutic index (RxI) was calculated as follows: RxI=LD50/EC50.

[2] = system: fibroblast cells (3T6) expressing full-length tau (T40) and the 12 kD PHF-core tau fragment; assay: Cell-based assay for establishing EC50 (inhibition of generation of the 12 kD tau fragment)
Description: In essence, fibroblast cells (3T6) express full-length tau (“T40”) under control of an inducible promotor, and low constitutive levels of the PHF-core tau fragment (12 kD fragment).
This is referred to as the EC50 value.

[3] = molecular target: T1, tau-tau binding: truncated tau (residues 297-390; dGA) on solid phase, full-length tau (T40) in aqueous phase (Homo sapiens, UniProt P10636); assay: In vitro assay for establishing B50 (tau-tau binding); conditions: concentration required to inhibit tau-tau binding by 50%; mean ± SE, number of replications in parentheses; NE = no effect when tested to 500 μM
T1 construct: truncated tau (residues 297-390; dGA); full-length tau (T40) was added in the aqueous phase
Description: Briefly, a fragment of tau corresponding to the core repeat domain, which has been adsorbed to a solid phase substrate, is able to capture soluble full-length tau and bind tau with high affinity. This association confers stability against proteolytic digestion of the aggregated tau molecules.
The aqueous phase binding buffer contained 0.05% Tween-20 and 1% gelatine in phosphate-buffered saline (pH7.4).
The concentration of compound required to inhibit the tau-tau binding by 50% is referred to as the B50 value.

T1 sequence (P10636 614-707): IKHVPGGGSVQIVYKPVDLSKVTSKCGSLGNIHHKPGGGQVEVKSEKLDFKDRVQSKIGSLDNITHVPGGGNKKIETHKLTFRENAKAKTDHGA

Compound	LD50 [1]	RxI [1]	EC50 [2]	IC50 [3]
CCN(CC)c1cc2oc3cc(N(CC)CC)cc4oc5cc(=[N+](CC)CC)cc6oc(c1)c2c(c34)c65 [AL, 2,6,10-tris-diethylamino-4,8,12-trioxatrianguleum hexafluorophosphate]	8 ± 4 (6) μM	62	0.13 ± 0.07 µM	8.5 ± 0.9 µM
CCN(CC)c1ccc2nc3ccc(N(C)C)cc3nc2c1.Cl [AM, 3-Diethylamino-7-dimethylaminophenazinium chloride]	93 ± 19 (6) μM	85	1.1 ± 0.24 µM	634 µM
CC[N+](CC)=c1ccc2nc3ccc(N(C)C)cc3oc-2c1 [AN, 3-Diethylamino-7-dimethylaminooxazinium perchlorate]	167 ± 29 (6) μM	309	0.54 ± 0.08 µM	> 500 µM
FC(F)(F)C1=c2cc3c4c(c2Oc2c1cc1c5c2CCCN5CCC1)CCC[N+]=4CCC3 [C, 8-(trifluoromethyl)-2,3,5,6,11,12,14,15-octahydro-1H,4H,10H,13H-diquinolizino[9,9a,1-bc;9′,9a′1′-hi]xanthylium perchlorate]	5.99 ± 2.6 (4) μM	13	0.47 µM	461 ± 130 µM
[Cl-].c1c2c3c(c4[o+]c5c6c7c(cc5cc14)CCCN7CCC6)CCCN3CCC2 [Compound A, 2,3,6,7,12,13,16,17-Octahydro-1H,5H,11H,15H-diquinolizino[1,9-bc:1′,9′-hi]xanthylium chloride]	19 ± 2.7 (22) μM	3115	0.0061 ± 0.0024 µM	33.8 ± 5.2 µM
CCN(CC)c1ccc(-c2c3ccc(=[N+](CC)CC)cc-3oc3cc(N(CC)CC)ccc23)cc1 [Compound AC]	14.5 ± 8.4 (8) μM	34	1.43 ± 0.14 µM	129 ± 11.9 µM
CCN(CC)c1ccc2c(-c3ccc([N+](=O)[O-])cc3)c3ccc(N(CC)CC)cc3[o+]c2c1.O=[N+]([O-])[O-] [Compound AD, 3,6-Bis-diethylamino-9-(4-nitrophenyl)xanthylium nitrate]	19 ± 9 (5) μM	54	0.35 ± 0.1 µM	–
CC1(C)CCN2CCC(C)(C)c3c4c(cc1c32)C=c1cc2c3c(c1O4)C(C)(C)CC[N+]=3CCC2(C)C [Compound AE, 1,1,7,7,11,11,17,17-Octamethyl-2,3,6,7,12,13,16,17-octahydro-1H,5H,11H,15H-diquinolizino[1,9-bc;1′,9′-hi]xanthylium nitrate]	21 ± 8 (7) μM	412	0.051 ± 0.012 µM	324 ± 87.1 µM
O=[N+]([O-])[O-].c1cc2cc3ccc(N4CCOCC4)cc3[o+]c2cc1N1CCOCC1 [Compound AF, 3,6-Bis-morpholino-xanthylium nitrate]	144 ± 67 (10) μM	7	22 ± 4.2 µM	187 ± 28.3 µM
O=[N+]([O-])[O-].c1cc2cc3ccc(N4CCCCC4)cc3[o+]c2cc1N1CCCCC1 [Compound AG, 3,6-Bis-piperidino-xanthylium nitrate]	13.8 ± 6.2 (8) μM	12	1.12 ± 0.75 µM	257 ± 50.3 µM
O=[N+]([O-])[O-].c1cc2cc3ccc(N4CCCC4)cc3[o+]c2cc1N1CCCC1 [Compound AH, 3,6-Bis-pyrrolidino-xanthylium nitrate]	121 ± 52 (12) μM	465	0.26 ± 0.073 µM	129 ± 15.5 µM
Cl.Cl.c1cc2c(cc1N1CCOCC1)Oc1cc(N3CCOCC3)ccc1C2 [Compound AI, 3,6-Bis-morpholino xanthene dihydrochloride]	280 ± 121 (10) μM	17	16 ± 11 µM	> 500 µM
Cl.Cl.c1cc2c(cc1N1CCCC1)Oc1cc(N3CCCC3)ccc1C2 [Compound AJ, 3,6-Bis-pyrrolidino xanthene dihydrochloride]	125 ± 57 (10) μM	334	0.37 ± 0.1 µM	> 500 µM
Cl.Cl.c1cc2c(cc1N1CCCCC1)Oc1cc(N3CCCCC3)ccc1C2 [Compound AK, 3,6-Bis-piperidino xanthene dihydrochloride]	44 ± 26 (8) μM	69	0.64 ± 0.27 µM	284 ± 101 µM
O=[N+]([O-])[O-].c1c2c3c(c4[o+]c5c6c7c(cc5cc14)CCCN7CCC6)CCCN3CCC2 [Compound B, 2,3,6,7,12,13,16,17-Octahydro-1H,5H,11H,15H-diquinolizino[1,9-bc:1′,9′-hi]xanthylium nitrate]	30.8 ± 4.6 (4) μM	3802	–	254 ± 26.4 µM
CCN(CC)c1ccc2c(c1)Oc1cc(N(CC)CC)ccc1C2 [Compound H, 3,6-bis-diethylamino xanthene dihydrochloride]	113 ± 18 (11) μM	2093	0.054 ± 0.01 µM	> 500 µM
CCc1c2ccc(N(CC)CC)cc2[o+]c2cc(N(CC)CC)ccc12.[Cl-] [Compound J, 9-Ethyl-3,6-bis-diethylamino Xanthylium Chloride]	17 ± 3 (10) μM	1545	0.011 ± 0.006 µM	> 500 µM
Cc1cc(N(C)C)cc2[s+]c3cc(N(C)C)cc(C)c3nc12 [DMMTC, reference compound]	2.7 ± 1.2 (6) μM	67	0.04 ± 0.004 µM	3.4 ± 0.2 µM
CCN(CC)c1ccc2cc3ccc(N(CC)CC)cc3[s+]c2c1.[I-] [K, 3,6-Bis(diethylamino)thioxanthylium Iodide]	21.2 ± 12 (3) μM	91	0.23 ± 0.13 µM	> 500 µM
CN(C)c1ccc2cc3ccc(N(C)C)cc3[s+]c2c1.[Cl-].[Cl-].[Cl-].[Zn+2] [L, 3,6-bis(dimethylamino)thioxanthylium zinc trichloride]	22 ± 8.6 (3) μM	73	0.3 µM	21.7 ± 2.7 µM
CN(C)c1ccc2nc3ccc(N(C)C)cc3[s+]c2c1 [MTC, reference compound]	–	–	0.59 ± 0.04 µM	–
CN(C)c1ccc2nc3ccc(=[N+](C)C)cc-3[nH]c2c1 [N, 3,7-Bis(dimethylamino)phenazinium chloride]	136 ± 19.3 (4) μM	–	–	93.1 ± 17 µM
CN(C)c1ccc2nc3ccc(=[N+](C)C)cc-3oc2c1 [O, 3,7-bis(dimethylamino)oxazinium chloride]	115 ± 17 (9) μM	29	3.9 ± 3.5 µM	190 ± 33.2 µM
